Patent publication US20100040623A1, “NEURITOGENIC AND NEURONAL SURVIVAL PROMOTING PEPTIDES DERIVED FROM THE FAMILY OF S-100 PROTEINS” (priority 2005, published 2010)

How the values were obtained:
[1] = test system: focal brain injury on the right fronto-parietal cortex; assay: Traumatic brain injury (cryolesion): TUNEL, GFAP, PCNA; assay type: in vivo, Rats and mice; details: 10 mg/kg s.c. at day -1, 1 and 2; post-lesion day 4
Experimental: A focal brain injury on the right fronto-parietal cortex was made by applying a piece of dry-ice (−78° C.) directly onto the skull for 30 seconds in mice and 60 seconds in rats, as previously described in details (Penkowa et al., 2003).
Histochemistry and immunohistochemistry were performed on sections cut from organs taken from fixated animals. Rats and mice were deeply anesthetized with Brietal and flushed by cardiac perfusion with saline containing heparine (0.9% NaCl, 3 ml/L 5000IU heparine) for 2 minutes followed by fixation with Zamboni's fixative (pH 7.4) for 4-8 minutes depending on the size of the animal. For immunohistochemical investigation, brain were dissected and postfixed in Zamboni's for 2-3 hours, dehydraded in graded alcohol followed by xylol and subsequently embedded in paraffin before being cut in 3 μm frontal sections throughout the entire area of the cryo lesion. For heat-induced epitope retrieval, the sections were boiled in citrate buffer (pH 6 or 9) in a microwave oven for 10 minutes followed by incubation in 10% goat serum (In Vitro, Fredensborg, DK) or donkey serum (code BP 005.1; The Binding Site, Birmingham, UK) in tris buffered saline (TBS)/Nonidet P-40 (0.01%) for 30 minutes at room temperature. Sections with mouse tissue used for incubation with monoclonal mouse-derived antibodies were also incubated with Blocking Solutions A+B from the HistoMouse-SP kit to quench endogenous mouse IgG (Zymed, Calif., USA).
Following treatment as described above, sections were incubated overnight at 5° C. with one of the following primary antibodies: polyclonal rabbit anti-cow glial fibrillary acidic protein (GFAP) 1:250 (a marker for astrocytes; DakoCytomation); monoclonal mouse anti-rat proliferating cellular nuclear antigen (PCNA) 1:10 (marking proliferating cell nuclear antigen/cell proliferation; DakoCytomation). The primary antibody was detected with biotynilated secondary antibodies, incubated with streptavidinbiotin-peroxidase complex for 30 min.
Terminal deoxynucleotidyl transferase (TdT)-mediated deoxyuridine triphosphate (dUTP)-biotin nick end labelling (TUNEL) was performed using the Fragment End Labeling (FragEL™) Detection Kit (Calbiochem, USA, code QIA33). The FragEL kit contains all the materials used below and each step was performed according to the manufacturer's recommendations. The tissue was processed and rehydrated as mentioned above, and sections were incubated with 20 µg/ml proteinase K for 20 min to strip off nuclear proteins. After immersion in equilibration buffer for 20 min, sections were incubated with TdT and biotin-labeled deoxynucleotids (dNTP-biotin) in a humified chamber at 37° C. for 1.5 hr. This was followed by wash buffer and the stop solution for 5 min at room temperature to stop the reaction. After washing in TBS and incubation in blocking buffer for 10 min, the sections were incubated with Peroxidase-Streptavidin for 30 min and afterwards, DAB was used as chromogen. The sections were counterstained with methyl-green. Negative control sections were treated similarly but incubated in the absence of TdT enzyme or dNTP-biotin or Peroxidase-Streptavidin. We also compared our sections with positive control slides provided in the FragEL Detection Kit. Furthermore, TUNEL was compared with other stainings for apoptosis (activated caspase-3, cytochrome-c and TNF[…]-R1). In addition, the morphologic criteria for apoptosis, i.e. cell shrinkage, formation of apoptotic bodies, membrane blebbing, no loss of cellular integrity, compaction of chromatin into uniformly dense masses, were evaluated.
In addition to morphological evaluation, quantification (cellular counts) of some of the variables, i.e. GFAP-positive cells, the area of GFAP-immunoreactivity, % of TUNEL-positive cells, % of proliferating cells, were analyzed. The analysis was carried out from the penumbra area of 3 μm brain sections for statistical analysis of the results. […]

[2] = test system: primary hippocampal neurons; assay: Neurite outgrowth from primary hippocampal neurons; assay type: cell-based, Wistar rat; details: for stimulation of neurite outgrowth in vitro (conclusion): summary statement; for neurite outgrowth from hippocampal primary neurons (average neurite length): treated with various concentrations of peptide for 24 hours
Experimental: (§1) Dissociated hippocampal and cerebellar (CGN) neurons were isolated from Wistar rat embryos at embryonic day 19 or newborn rats as previously described by Rønn et al. (1999). Briefly, hippocampus was isolated from the brain in ice cold modified Krebs Ringer solution, cleared of blood vessels, roughly homogenised by chopping and then trypsinised. The dissociated cells were washed in the presence of DNAse 1 and soybean trypsin inhibitor. Postnatal hippocampal neurons were plated at a density of 10,000 cells/cm^2 on uncoated 8-well permanox Lab-Tek chamber slides in Neurobasal medium supplemented with 0.4% (w/v) bovine serum albumin (BSA; Sigma-Aldrich), 2% (v/v) B27 Neurobasal supplement, 1% (v/v) glutamax, 100 U/ml penicillin, 100 μg/ml streptomycin and 2% 1 M HEPES (all from Gibco, BRL). After 24 hours, the neurons were fixed with 4% (v/v) formaldehyde for 20 minutes and thereafter immunostained using primary rabbit antibodies against GAP-43 and Alexa Fluor secondary goat anti-rabbit Ig antibodies. Images of at least 200 neurons for each group in each individual experiment were obtained systematically by computer assisted fluorescence microscopy as previously described (Rønn et al., 2000). Briefly, a Nikon Diaphot inverted microscope with a Nikon Plan 20× objective (Nikon, Tokyo, Japan) coupled to a video camera (Grundig Electronics, Germany) was used for recordings. A software package Prima developed at the Protein Laboratory (Copenhagen, Denmark) was used to make a stereologically based determination of neurite length (Rønn et al., 2000).
(§2) Neuronal cell cultures were treated with various concentrations of a peptide for 24 hours, and the average neurite length was evaluated as described above. […] Thus peptide segments number 3 and number 6 from various members of the S100 protein family may represent potent pharmacological tools to induce neuronal differentiation and axon regeneration.

[3] = test system: kainic acid (KA)-induced toxicity; assay: Kainic acid-induced toxicity (seizures, mortality); assay type: in vivo, Male C57BL/6J mice; details: peptide 10 mg/kg daily from day -2; for amount of seizures: 20 mg/kg KA; for profile of seizures (severity): 30 mg/kg KA
Experimental: Male C57BL/6J mice were injected with 10 mg/kg H3 or H6 daily starting from day-2 prior to kainic acid treatment. At day 0 the animals were injected 30 mg/kg KA in order to induce severe seizures, or 20 mg/kg KA in order to induce mild seizures and prevent excessive mortality. Latency and seizure severity were scored for 2 h postinjection by using a numerical scale of 0 to 6: 0—immobility; 1—facial automatism; 2—head nodding; 3—forelimb clonus; 4—rearing; 5—generalized convulsions; 6—death. Control animals received s.c injection of vehicle.

[4] = test system: cultured hippocampal neurons; assay: Intracellular Ca2+ concentration, fura-2 loaded neurons; assay type: cell-based; details: fura-2 ratiometric dye
sciatic nerve crush = assay: Functional recovery after sciatic nerve crush (Sciatic Function Index); assay type: in vivo, Wistar rats; details: 10 mg/kg daily for 18 days
Experimental: Nerve crush of sciatic nerve was performed as follows. Before surgery, animals were anesthetized with subcutaneous injection of a Fenthanil/Droperidol/Medazolam (0.8 ml per 100 g). The right hind limb was shaved and swabbed with antiseptic solution. A longitudinal cutaneous incision was made in the back of the thigh. Dissection was carried out along a plane separating the hamstring and gluteal muscles to expose the sciatic nerve. Careful dissection was performed to isolate the sciatic nerve from the surrounding connective tissue over a length of 2 to 2.5 cm. The sciatic nerve was unilaterally crushed twice in the same place (0.5 cm upper trifurcation) for a 30 sec using a locking surgical needle holder. The place of the crush was labelled with 5-0 suture material attached to the epineurium. […] The bottom of the corridor was lined with paper, upon which the hind pawprints of the rat were recorded. […] Several prints of each foot were inspected, and the best corresponding pair of prints from experimental (E) and normal (N) legs were measured to the nearest millimeter, using a caliper. Three footprint parameters were measured: distance from the heel to the third toe, print length (PL), the distance between the first and fifth toe, toe spread (TS), and distance between the second and fourth toe, the intermediary toe spread (IT). […]

cerebellar (CGN) neurons = assay: Neurite outgrowth from primary cerebellar neurons; assay type: cell-based, Wistar rat; details: treated with various concentrations of peptide for 24 hours
Experimental: as §1, §2

CREB = assay: Phosphorylation of CREB in primary hippocampal neurons (PAGE method); assay type: cell-based; details: neurons cultured 6 hours, stimulated 15 minutes
Experimental: (§3) Primary hippocampal neurons cultured for 6 hours were stimulated with H3 or H6 for 15 minutes. Thereafter the phosphorylation level of the three intracellular messengers involved in neurite outgrowth and survival, Akt, CREB, and ERK, was determined using the PAGE method.

Akt = assay: Phosphorylation of Akt in primary hippocampal neurons (PAGE method); assay type: cell-based; details: neurons cultured 6 hours, stimulated 15 minutes
Experimental: as §3

ERK = assay: Phosphorylation of ERK in primary hippocampal neurons (PAGE method); assay type: cell-based; details: neurons cultured 6 hours, stimulated 15 minutes
Experimental: as §3

hippocampal neurons = details: Novitskaya et al., 2000; cited from earlier work

Substance | stimulation of neurite outgrowth in vitro (conclusion) [2] | amount of seizures [3] | profile of seizures (severity) [3] | level of intracellular Ca2+ ([Ca2+]i) [4] | neurite outgrowth from cerebellar primary neurons (average neurite length) (cerebellar (CGN) neurons) | neurite outgrowth from hippocampal primary neurons (average neurite length) [2] | phosphorylation level of CREB (CREB) | phosphorylation level of Akt (Akt) | area of GFAP-immunoreactivity (astrogliosis) [1] | cell death (apoptosis, DNA fragmentation/TUNEL) in the cortex induced by cryolesion [1] | number of GFAP-positive cells (astrogliosis) [1] | phosphorylation level of ERK (ERK) | other results
DEAAFQKLMSNLD [A4H4, tetrameric peptide (hekatone) representing region 4 of S100A4] | – | – | – | – | – | – | – | – | – | – | – | – | proliferation of neural progenitor cells [1]: strongly induced proliferation
HYHTHKE [A12H6, tetrameric peptide (hekatone) representing region 6 of S100A12] | potent stimulators of neurite outgrowth | – | – | – | – | – | – | – | – | – | – | – | –
KELLTRELPSFLGKRT [A4H3, tetrameric peptide (hekatone) representing region 3 of S100A4] | potent stimulators of neurite outgrowth | decreased the amount of seizures | towards less severe seizures types | but not H3 significantly increased | strongly induced neurite outgrowth | strongly induced neurite outgrowth | significantly increased phosphorylation | significantly increased phosphorylation | increase | protected cells in the cortex from cell death | increase | significantly increased phosphorylation | recovery of the motor function of the injured limb (SFI) (sciatic nerve crush): strongly promoted the recovery
KQLLTKELANTIKNIK [A12H3, tetrameric peptide (hekatone) representing region 3 of S100A12] | – | – | – | – | strongly induced neurite outgrowth | strongly induced neurite outgrowth | – | – | – | – | – | – | –
NEFFEGFPDKQPRKK [A4H6, tetrameric peptide (hekatone) representing region 6 of S100A4] | potent stimulators of neurite outgrowth | decreased the amount of seizures | towards less severe seizures types | significantly increased | strongly induced neurite outgrowth | strongly induced neurite outgrowth | significantly increased phosphorylation | significantly increased phosphorylation | increase | protected cells in the cortex from cell death | increase | significantly increased phosphorylation | –
S100A4: S100 family Ca2+-binding protein S100A4 (also termed Mts1) | – | – | – | – | – | – | – | – | – | – | – | – | neurite outgrowth in hippocampal neurons in vitro (hippocampal neurons): potent promoter of neurite outgrowth
